Activity calls are given as the source filed them.
Tests used:
[1] = target: Beta-1 adrenergic receptor (Cavia porcellus) (UniProt B0FL73); experiment: Stimulation or blockade of Beta-1 adrenergic receptor on guinea pig atria up to a dose of 10e-4 M
[2] = Stimulation or blockade of Alpha adrenergic receptor on rat vas deferens up to a dose of 10e-4 M; assay type: tissue-based
[3] = target: Beta-2 adrenergic receptor (Canis lupus familiaris) (UniProt P54833); experiment: Stimulation or blockade of Beta-2 adrenergic receptor on guinea pig trachea up to a dose of 10e-4 M; details: Cavia porcellus; target entry is the homologue from another species

Measured: Activity

Beta-2 adrenergic receptor (Canis lupus familiaris), sequence (P54833 whole entry, looked up): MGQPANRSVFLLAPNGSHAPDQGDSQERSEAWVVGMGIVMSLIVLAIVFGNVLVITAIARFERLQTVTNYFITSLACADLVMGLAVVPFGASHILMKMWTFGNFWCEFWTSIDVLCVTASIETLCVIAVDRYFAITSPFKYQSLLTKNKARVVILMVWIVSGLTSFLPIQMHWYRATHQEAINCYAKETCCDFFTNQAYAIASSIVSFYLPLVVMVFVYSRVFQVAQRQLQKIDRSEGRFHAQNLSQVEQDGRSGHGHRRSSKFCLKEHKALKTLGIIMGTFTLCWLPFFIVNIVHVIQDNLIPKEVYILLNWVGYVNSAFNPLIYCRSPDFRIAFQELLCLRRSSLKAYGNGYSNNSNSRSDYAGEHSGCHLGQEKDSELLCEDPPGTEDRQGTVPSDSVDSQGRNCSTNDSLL
Beta-1 adrenergic receptor (Cavia porcellus), sequence (B0FL73 1-467): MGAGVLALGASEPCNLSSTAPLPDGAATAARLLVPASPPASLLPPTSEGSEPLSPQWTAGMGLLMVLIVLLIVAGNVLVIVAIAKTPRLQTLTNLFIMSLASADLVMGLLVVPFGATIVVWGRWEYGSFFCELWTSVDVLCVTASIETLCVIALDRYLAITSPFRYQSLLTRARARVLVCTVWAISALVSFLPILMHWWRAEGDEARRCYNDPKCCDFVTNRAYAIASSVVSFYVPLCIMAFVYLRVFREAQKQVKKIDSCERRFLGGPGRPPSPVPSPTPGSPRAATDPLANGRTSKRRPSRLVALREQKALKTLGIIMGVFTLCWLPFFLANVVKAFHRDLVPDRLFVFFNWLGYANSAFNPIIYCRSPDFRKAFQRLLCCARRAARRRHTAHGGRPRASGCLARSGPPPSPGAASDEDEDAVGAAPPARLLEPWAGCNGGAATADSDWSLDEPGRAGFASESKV

CC(C)NC1C2CCC(C2)C1(O)c1ccc(O)c(O)c1 (stereo unspecified)
inactive: all assays above

NC1C2CCC(C2)C1(O)c1ccc(O)c(O)c1 (stereo unspecified)
inactive: all assays above
